Assay results reported in the supplement of paper PMC10307832.

Legend:
Assay in all cases: relative viability (nuclei count vs DMSO), 5 days (fraction); higher = more cells survive
[1] = compound: COc1cc2/c(=N/c3ccc(Br)cc3F)nc[nH]c2cc1OCC1CCN(C)CC1 [Vandetanib] + NC(=O)Nc1cc(-c2cccc(F)c2)sc1C(=O)N[C@H]1CCCNC1 [AZD7762] (partner 0.2 µM)
Summary of the method: (§1)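 Dosing by pin tool came one day after lung cancer cell lines were seeded in 1536-well plates, using either one drug or a fixed anchor-drug dose plus five library-drug doses (not always all listed) in √10 steps. After 5 days, nuclei were counted on 4× images. Relative viability is treated-well nuclei count divided by vehicle-well nuclei count, and values are medians of duplicate plates.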

[2] = compound: COc1cc2/c(=N/c3ccc(Br)cc3F)nc[nH]c2cc1OCC1CCN(C)CC1 [Vandetanib] + CCNC(=O)c1noc(-c2cc(C(C)C)c(O)cc2O)c1-c1ccc(CN2CCOCC2)cc1 [Luminespib] (partner 0.01 µM)
Summary of the method: as §1

[3] = compound: C1=CC=C2C(=C1)N=C(S2)C(C#N)C3=NC(=NC=C3)NCCC4=CN=CC=C4 + COc1cc2c(Oc3ccc(NC(=O)C4(C(=O)Nc5ccc(F)cc5)CC4)cc3F)ccnc2cc1OCCCN1CCOCC1 [Foretinib] (partner 0.25 µM)
Summary of the method: as §1

[4] = compound: COc1cc2/c(=N/c3ccc(Br)cc3F)nc[nH]c2cc1OCC1CCN(C)CC1 [Vandetanib] + CC(=O)Nc1cccc(-n2c(=O)n(C3CC3)c(=O)c3c(Nc4ccc(I)cc4F)n(C)c(=O)c(C)c32)c1 [Trametinib] (partner 0.02 µM)
Summary of the method: as §1

| Cell Line | relative viability ([1]; first compound 0.02 µM) | relative viability ([1]; first compound 0.06325 µM) | relative viability ([1]; first compound 0.2 µM) | relative viability ([1]; first compound 0.6325 µM) | relative viability ([1]; first compound 2 µM) | relative viability ([2]; first compound 0.02 µM) | relative viability ([2]; first compound 0.06325 µM) | relative viability ([2]; first compound 0.2 µM) | relative viability ([2]; first compound 0.6325 µM) | relative viability ([2]; first compound 2 µM) | relative viability ([3]; first compound 0.005 µM) | relative viability ([3]; first compound 0.01581 µM) | relative viability ([3]; first compound 0.05 µM) | relative viability ([3]; first compound 0.1581 µM) | relative viability ([3]; first compound 0.5 µM) | relative viability ([4]; first compound 0.02 µM) | relative viability ([4]; first compound 0.06325 µM) | relative viability ([4]; first compound 0.2 µM) | relative viability ([4]; first compound 0.6325 µM) | relative viability ([4]; first compound 2 µM) |
| --- | --- | --- | --- | --- | --- | --- | --- | --- | --- | --- | --- | --- | --- | --- | --- | --- | --- | --- | --- | --- |
| LK-2 | 0.36 | 0.345 | 0.309 | 0.369 | 0.515 | 0.189 | 0.163 | 0.235 | 0.156 | 0.214 | 1.21 | 1.21 | 1.29 | 1.06 | 1.64 | 0.753 | 0.829 | 0.82 | 0.62 | 0.724 |
| LOU-NH91 | 0.759 | 0.765 | 0.678 | 0.718 | 0.755 | 0.33 | 0.306 | 0.294 | 0.369 | 0.32 | 0.942 | 0.884 | 0.863 | 0.9 | 0.925 | 0.775 | 0.731 | 0.725 | 0.716 | 0.673 |
| LU99A | 0.303 | 0.516 | 0.344 | 0.238 | 0.334 | 0.231 | 0.233 | 0.273 | 0.255 | 0.256 | 0.727 | 0.853 | 0.701 | 0.843 | 0.789 | 0.486 | 0.518 | 0.396 | 0.512 | 0.539 |
| LXF-289 | 1.07 | 1.08 | 1.04 | 1.1 | 1.01 | 0.626 | 0.627 | 0.744 | 0.718 | 0.624 | 0.898 | 1.02 | 0.988 | 1.01 | 0.826 | 0.681 | 0.663 | 0.606 | 0.69 | 0.677 |
| NCI-H23 | 0.193 | 0.251 | 0.199 | 0.234 | 0.31 | 0.259 | 0.224 | 0.232 | 0.221 | 0.221 | 0.83 | 0.995 | 0.873 | 1.02 | 1.07 | 0.382 | 0.342 | 0.335 | 0.455 | 0.293 |
| NCI-H322M | 0.518 | 0.567 | 0.605 | 0.496 | 0.374 | 0.805 | 0.8 | 0.889 | 0.834 | 0.504 | 0.887 | 0.983 | 0.838 | 0.972 | 0.982 | 0.513 | 0.476 | 0.516 | 0.55 | 0.486 |
| NCI-H358 | 0.545 | 0.465 | 0.476 | 0.431 | 0.358 | 0.336 | 0.471 | 0.461 | 0.218 | 0.239 | 0.635 | 0.677 | 0.776 | 0.772 | 0.642 | 0.153 | 0.129 | 0.123 | 0.128 | 0.123 |
| NCI-H441 | 1.12 | 0.945 | 1.02 | 1.31 | 1.34 | 0.376 | 0.392 | 0.208 | 0.409 | 0.45 | – | 0.902 | 0.913 | 1.1 | 0.908 | 0.527 | 0.467 | 0.43 | 0.405 | 0.351 |
| NCI-H460 | 0.497 | 0.624 | 0.57 | 0.466 | 0.581 | 0.0345 | 0.0344 | 0.0312 | 0.0333 | 0.0336 | 0.969 | 1.15 | 1.06 | 1.08 | 1.08 | 0.141 | 0.147 | 0.157 | 0.148 | 0.123 |
| NCI-H522 | 0.753 | 0.876 | 0.738 | 0.92 | 0.699 | 1.3 | 1.17 | 1.11 | 1.18 | 0.96 | – | – | – | – | – | 0.87 | 0.818 | 0.856 | 0.791 | 0.771 |
| NCI-H596 | 1.15 | 1.05 | 1.12 | 1.02 | 1.17 | 0.915 | 0.89 | 0.81 | 1.02 | 0.771 | 0.656 | 0.955 | 0.741 | 0.853 | 0.971 | 0.773 | 0.763 | 0.756 | 0.758 | 0.634 |
| NCI-H647 | 0.404 | 0.481 | 0.395 | 0.404 | 0.446 | 0.334 | 0.337 | 0.0629 | 0.283 | 0.285 | 1.08 | 1.27 | 1.28 | 1.32 | 1.14 | 0.458 | 0.474 | 0.469 | 0.451 | 0.436 |
| NCI-H650 | 1.01 | 1.02 | 0.976 | 0.941 | 0.905 | 0.843 | 0.667 | – | 0.992 | 0.766 | 0.946 | – | 0.993 | 0.942 | 1.1 | 0.995 | 0.927 | 0.947 | 0.929 | 0.981 |
| NCI-H727 | 0.482 | 0.489 | 0.651 | 0.562 | 0.635 | 0.591 | 0.349 | 0.247 | 0.252 | 0.316 | 1.07 | 0.73 | 0.922 | 1.03 | 0.809 | 0.417 | 0.379 | 0.366 | 0.364 | 0.329 |
| NCI-H838 | 0.902 | 0.895 | 0.976 | 1.03 | 0.894 | 0.354 | 0.353 | 0.145 | 0.333 | 0.278 | 0.981 | 1.04 | 0.99 | 0.928 | 0.926 | 0.528 | 0.463 | 0.539 | 0.484 | 0.533 |
| NCI-H1792 | 0.654 | 0.656 | 0.607 | 0.5 | 0.673 | 0.492 | 0.496 | 0.355 | 0.461 | 0.413 | – | – | – | – | – | 0.407 | 0.413 | 0.463 | 0.502 | 0.354 |
